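Exposure lasted 48 hours, with cells grown in 96-well plates and compounds tested at five concentrations. Abbreviation: GI50, concentration required for 50% inhibition of growth.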 Activity calls are given as the source filed them. No stated cut-off is given here; in the data, active = GI50 up to about 1.1 µM and inactive = higher.
Experiments:
Assay in all cases: DTP human tumour cell line panel, 48 h
786-0 = tested on: 786-0
A549 = tested on: A549
ACHN = tested on: ACHN
CCRF-CEM = tested on: CCRF-CEM
DU-145 = tested on: DU-145
HL-60 = tested on: HL-60
IGROV-1 = tested on: IGROV-1
LOX IMVI = tested on: LOX IMVI
M14 = tested on: M14
MCF7 = tested on: MCF7
Malme-3M = tested on: Malme-3M
NCI-H226 = tested on: NCI-H226
NCI/ADR-RES = tested on: NCI/ADR-RES
OVCAR-3 = tested on: OVCAR-3
SF-268 = tested on: SF-268
SF-295 = tested on: SF-295
SK-OV-3 = tested on: SK-OV-3
T47D = tested on: T47D
UACC-257 = tested on: UACC-257
MDA-N = tested on: MDA-N

Measured: GI50

COC(=O)c1c(O)ccc2c1c1c(n2C)C(=O)c2ccccc2C1=O
inactive: 786-0 15.3 µM | A549 14.5 µM | ACHN 9.29 µM | CCRF-CEM 6.37 µM | DU-145 11.9 µM | HL-60 > 100 µM | IGROV-1 4 µM | LOX IMVI 16.7 µM | M14 49.2 µM | MCF7 9.18 µM | Malme-3M 42.5 µM | NCI-H226 9.02 µM | NCI/ADR-RES 43.7 µM | OVCAR-3 35.3 µM | SF-268 13.8 µM | SF-295 22.5 µM | SK-OV-3 6.19 µM | T47D 3.42 µM | UACC-257 > 100 µM

COc1ccc(C(=O)C(C(=O)C(=O)Nc2nc3ccc(OC)cc3s2)c2ccc(OC)cc2)cc1 (configuration not stated)
inactive: 786-0 > 100 µM | A549 > 100 µM | ACHN > 100 µM | CCRF-CEM > 100 µM | HL-60 75.2 µM | IGROV-1 > 100 µM | LOX IMVI > 100 µM | M14 > 100 µM | Malme-3M > 100 µM | NCI-H226 > 100 µM | OVCAR-3 > 100 µM | SF-268 > 100 µM | SF-295 > 100 µM | SK-OV-3 > 100 µM | UACC-257 63.2 µM

O=C1/C(=C/c2ccccc2)NC(=S)N1CN1CCCCC1
inactive: 786-0 > 100 µM | A549 > 100 µM | ACHN > 100 µM | CCRF-CEM > 100 µM | DU-145 > 100 µM | IGROV-1 > 100 µM | LOX IMVI > 100 µM | M14 > 100 µM | MCF7 > 100 µM | MDA-N > 100 µM | NCI-H226 > 100 µM | NCI/ADR-RES > 100 µM | OVCAR-3 > 100 µM | SF-268 > 100 µM | SF-295 > 100 µM | SK-OV-3 > 100 µM | UACC-257 16.3 µM

CCC(C(=O)C(=O)C(CC)P1(=O)OC(C)(C)CN1C(C)(C)C)P1(=O)OC(C)(C)CN1C(C)(C)C (configuration not stated)
inactive: 786-0 > 100 µM | A549 > 100 µM | ACHN > 100 µM | CCRF-CEM > 100 µM | DU-145 > 100 µM | HL-60 > 100 µM | IGROV-1 > 100 µM | LOX IMVI > 100 µM | M14 > 100 µM | MCF7 68.5 µM | NCI-H226 > 100 µM | NCI/ADR-RES > 100 µM | OVCAR-3 > 100 µM | SF-268 > 100 µM | SF-295 > 100 µM | SK-OV-3 > 100 µM | T47D > 100 µM | UACC-257 > 100 µM

O=C(Nc1ccccc1C(=O)O)C(=O)C(C(=O)c1ccccc1-c1ccccc1)C1OC(=O)c2ccccc21 (configuration not stated)
inactive: 786-0 18 µM | A549 31.4 µM | ACHN 34 µM | CCRF-CEM 22.1 µM | HL-60 23.9 µM | IGROV-1 25.6 µM | LOX IMVI 18.7 µM | M14 17.1 µM | Malme-3M 12.2 µM | NCI-H226 12.5 µM | OVCAR-3 16.6 µM | SF-268 16.8 µM | SF-295 25.2 µM | SK-OV-3 30.9 µM | UACC-257 16.7 µM

COc1ccc2nc3ccc(OC)cc3c(SCc3ccccc3)c2c1
inactive: 786-0 76 µM | A549 > 82.4 µM | ACHN 97.9 µM | CCRF-CEM > 52.7 µM | DU-145 > 100 µM | HL-60 > 100 µM | IGROV-1 > 63.1 µM | LOX IMVI > 83.4 µM | M14 > 33.1 µM | MCF7 > 55.3 µM | Malme-3M > 100 µM | NCI-H226 > 100 µM | NCI/ADR-RES > 100 µM | OVCAR-3 > 100 µM | SF-268 > 100 µM | SF-295 > 91 µM | SK-OV-3 > 100 µM | T47D > 100 µM | UACC-257 > 92.5 µM

N=C(N)NCCN1CCCCCc2ccccc21
inactive: 786-0 > 10 µM | A549 > 10 µM | ACHN > 10 µM | CCRF-CEM > 10 µM | DU-145 > 10 µM | HL-60 > 10 µM | IGROV-1 > 10 µM | LOX IMVI > 10 µM | M14 > 10 µM | MCF7 > 10 µM | Malme-3M > 10 µM | NCI-H226 > 10 µM | NCI/ADR-RES > 10 µM | OVCAR-3 > 10 µM | SF-268 3.27 µM | SF-295 > 10 µM | SK-OV-3 > 10 µM | T47D > 10 µM | UACC-257 > 10 µM

N#C/N=C(/N)c1sc2nc3c(c(-c4ccc(Br)cc4)c2c1N)CCCC3
inactive: 786-0 15.7 µM | A549 25.4 µM | ACHN 20.6 µM | CCRF-CEM 9.84 µM | DU-145 21 µM | LOX IMVI 7.93 µM | M14 21.8 µM | MCF7 18.5 µM | MDA-N 3.42 µM | NCI-H226 15.9 µM | NCI/ADR-RES 21.4 µM | SF-268 35 µM | SF-295 11.1 µM | SK-OV-3 28.1 µM | UACC-257 28.5 µM

N#C/C(=C\c1ccccc1O)C(N)=O
inactive: 786-0 > 100 µM | A549 > 100 µM | ACHN 48.9 µM | CCRF-CEM 23.6 µM | HL-60 20.1 µM | IGROV-1 > 100 µM | LOX IMVI > 100 µM | M14 > 100 µM | Malme-3M > 100 µM | NCI-H226 46.8 µM | OVCAR-3 48.5 µM | SF-268 81.7 µM | SF-295 > 100 µM | SK-OV-3 53.1 µM | UACC-257 50.7 µM

Nc1ccn(CCOC(=O)c2ccccc2)c(=O)n1
inactive: 786-0 > 100 µM | A549 > 100 µM | ACHN > 100 µM | CCRF-CEM > 100 µM | HL-60 > 100 µM | IGROV-1 > 100 µM | LOX IMVI > 100 µM | M14 > 100 µM | Malme-3M > 100 µM | NCI-H226 > 100 µM | OVCAR-3 > 100 µM | SF-268 > 100 µM | SF-295 > 100 µM | SK-OV-3 > 100 µM | UACC-257 > 100 µM

CCCCOCc1cc(CN2CCN(C)CC2)c(O)c2ncccc12
inactive: 786-0 14.6 µM | A549 23.6 µM | ACHN 6.24 µM | CCRF-CEM 3.07 µM | HL-60 2.13 µM | IGROV-1 29.3 µM | LOX IMVI 22.1 µM | M14 12.5 µM | Malme-3M 21.3 µM | NCI-H226 20.8 µM | OVCAR-3 7.59 µM | SF-268 16.2 µM | SF-295 4.17 µM | SK-OV-3 67.6 µM | UACC-257 21.1 µM

O=C(O)CNc1c2ccccc2[n+]([O-])c2ccccc12
inactive: 786-0 > 100 µM | A549 > 100 µM | ACHN 65.5 µM | CCRF-CEM 21.2 µM | HL-60 18.7 µM | IGROV-1 > 100 µM | LOX IMVI 78.7 µM | M14 > 100 µM | Malme-3M 61.4 µM | NCI-H226 > 100 µM | OVCAR-3 > 100 µM | SF-268 > 100 µM | SF-295 > 100 µM | SK-OV-3 > 100 µM | UACC-257 > 100 µM
